Assay results from ChEMBL document CHEMBL1128116, “Synthesis and resolution of -(aminomethyl)-4-chlorobenzeneethanesulfinic acid a potent gabaB receptor ligand” (Bioorg Med Chem Lett, 1995).

Key:
Cavia porcellus = organism: Cavia porcellus; assay: In vitro inhibition against electrical field stimulated neuronal cholinergic contractions of guinea pig trachea; type: functional
[1] = Inhibitory activity against Gamma-aminobutyric acid A (GABA-A) receptor; design: species or system Rattus norvegicus

## NCC(CS(=O)O)c1ccc(Cl)cc1 (single isomer, unassigned; (-))
Cavia porcellus
  IC30: 13.9 µM

## NCC(CS(=O)O)c1ccc(Cl)cc1 (racemic)
[1]
  IC50: > 100 µM
Cavia porcellus; Cavia porcellus, Trachea, read-out: IC30
  IC30: 22 µM
